What was measured:
[1] = system: HER3-ss+4aa/Gaussia Luciferase; assay: Dox-Induced Her3-ss-Gluc Assay; format: cell-based; conditions: 24 hr Dox induction; 293FRT/TO cells; read-out: 24 hr Dox Inducible Her3(ss + 4)Gluc 293FRT/TO: Mean IC50
How it was run: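 Expression of a Gaussia luciferase reporter carrying the HER3 signal sequence plus 4 amino acids is induced by doxycycline in stably transfected Flp-In 293 T-REx cells. Compounds are added with doxycycline at 37° C., 5% CO2. Undefined stereocentres denote stereoisomer mixtures.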

[2] = Liver Microsome Stability Assay (mouse); conditions: mouse liver microsomes, with NADPH, 1.0 uM compound
Experimental: (§1) Stability of a compound was assessed in the presence of liver microsomes from various sources—mouse, rat, monkey and human liver microsomes. 1.0 uM compound, 0.4% DMSO in 0.1 M Potassium Phosphate with 1.0 mg/mL liver microsomes, were incubated at 37° C. with or without 1 mM NADPH. The samples were quenched at 0, and 30 minutes.

[3] = system: PD1-ss+10aa/Gaussia Luciferase; assay: Dox-Induced PD1-ss-Gluc Assay; format: cell-based; conditions: 24 hr Dox induction; 293FRT/TO cells; read-out: 24 hr Dox Inducible PD1ssGluc 293FRT/TO: Mean IC50
How it was run: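 Gaussia luciferase fused downstream of the PD1 signal peptide plus 10 residues was expressed on doxycycline induction in stably transfected Flp-In 293 T-REx cells. Compounds were added with doxycycline and incubated at 37 °C, 5% CO2.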

[4] = Liver Microsome Stability Assay (human); conditions: human liver microsomes, with NADPH, 1.0 uM compound
Experimental: as §1

[5] = system: multiple myeloma cell line U266B1; assay: U266 Cell Viability Assay; format: cell-based, human; conditions: Homo sapiens, U-266, 48 h, U266B1 cells, Celltiter-Glo
How it was run: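 48 h treatment, 37° C./5% CO2, RPMI 1640 + 10% FBS; viability by CellTiter-Glo luminescence.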

[6] = system: TNFα-FL/Gaussia Luciferase; assay: Dox Induced TNFα-FL-Gluc Assay; format: cell-based; conditions: for IC50: 24 hr Dox induction, 293FRT/TO cells, read-out: 24 hr Dox Inducible TNFaFLGluc 293FRT/TO: Mean IC50; for 24 hr Dox Inducible TNFaFLGluc 293FRT/TO: TNF/PD1: ratio of TNFaFLGluc IC50 to PD1ssGluc IC50
How it was run: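 Cells are seeded one day ahead, then treated with compound plus doxycycline at 37 °C, 5% CO2. The stable Flp-In 293 T-REx line expresses full-length TNFα (amino acids 1-233) with Gaussia luciferase fused to its 3′ end, inducibly via T-REx.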

[7] = system: IL-2-FL/Gaussia Luciferase; assay: Dox Induced IL2-FL-Gluc Assay; format: cell-based; conditions: for IC50: 24 hr Dox induction, 293FRT/TO cells, read-out: 24 hr Dox Inducible IL2FLGluc 293FRT/TO: Mean IC50; for 24 hr Dox Inducible IL2FLGluc 293FRT/TO: IL2/PD1: ratio of IL2FLGluc IC50 to PD1ssGluc IC50
How it was run: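 Reporter is Gaussia luciferase fused to the 3′ end of full-length IL-2 (aa 1-153), expressed from a doxycycline-inducible T-REx construct in stably selected Flp-In 293 cells. Compounds were co-added with doxycycline and incubated at 37° C, 5% CO2.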

[8] = system: multiple myeloma cell line NCI-H929; assay: H929 Cell Viability Assay; format: cell-based, human; conditions: Homo sapiens, NCI-H929, 48 h, NCI-H929 cells, Celltiter-Glo
How it was run: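 Plate the myeloma cells in RPMI 1640 with 10% FBS, add serially diluted compound, incubate for 48 hours at 37° C, then add CellTiter-Glo and read luciferase signal.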

[9] = Liver Microsome Stability Assay (monkey); conditions: monkey liver microsomes, with NADPH, 1.0 uM compound
Experimental: as §1

[10] = Liver Microsome Stability Assay (rat); conditions: rat liver microsomes, with NADPH, 1.0 uM compound
Experimental: as §1

Row | Structure (SMILES) | IC50 [1] | Liver Microsome Stability (Multiple Species): Mouse - % Remaining after 30 min w/NADPH [2] | IC50 [3] | Liver Microsome Stability (Multiple Species): Human - % Remaining after 30 min w/NADPH [4] | EC50 [5] | IC50 [6] | 24 hr Dox Inducible TNFaFLGluc 293FRT/TO: TNF/PD1 [6] | IC50 [7] | 24 hr Dox Inducible IL2FLGluc 293FRT/TO: IL2/PD1 [7] | EC50 [8] | Liver Microsome Stability (Multiple Species): Monkey - % Remaining after 30 min w/NADPH [9] | Liver Microsome Stability (Multiple Species): Rat - % Remaining after 30 min w/NADPH [10]
1 | C[C@@H](O)c1ccc(N2CCC[C@@H]2c2csc(NC(=O)c3cccn3Cc3ccnc(F)c3)n2)cc1 [Compound A111, 1-((2-fluoropyridin-4-yl)methyl)-N-(4-((R)-1-(4-((R)-1-hydroxyethyl)phenyl)pyrrolidin-2-yl)thiazol-2-yl)-1H-pyrrole-2-carboxamide] | 13.6 nM | 12.7% | 7.92 nM | 2.78% | > 25 µM | 94.5 nM | 11.9 | 16.3 nM | 2.1 | 422 nM | 3.48% | 7.97%
2 | C[C@H](O)c1ccc(N2CCC[C@@H]2c2csc(NC(=O)c3cccn3Cc3ccnc(F)c3)n2)cc1 [Compound A112, 1-((2-fluoropyridin-4-yl)methyl)-N-(4-((R)-1-(4-((S)-1-hydroxyethyl)phenyl)pyrrolidin-2-yl)thiazol-2-yl)-1H-pyrrole-2-carboxamide] | 5.98 nM | 5.81% | 3.81 nM | 3.41% | > 25 µM | 40 nM | 10.5 | 8.64 nM | 2.3 | 408 nM | 0.35% | 6.03%
3 | O=C(Nc1nc([C@H]2CCCN2c2ccc(CO)cc2)cs1)c1cccn1Cc1ccnc(F)c1 [Compound A113, (R)-1-((2-fluoropyridin-4-yl)methyl)-N-(4-(1-(4-(hydroxymethyl)phenyl)pyrrolidin-2-yl)thiazol-2-yl)-1H-pyrrole-2-carboxamide] | 22.6 nM | 4.74% | 9.82 nM | 0.61% | > 25 µM | 136 nM | 13.9 | 17.9 nM | 1.8 | 615 nM | 1.3% | 0.64%
4 | O=C(Nc1nc([C@H]2CCCN2c2ccc(C3(O)CCC3)cc2)cs1)c1cccn1Cc1ccnc(F)c1 [Compound A114, (R)-1-((2-fluoropyridin-4-yl)methyl)-N-(4-(1-(4-(1-hydroxycyclobutyl)phenyl)pyrrolidin-2-yl)thiazol-2-yl)-1H-pyrrole-2-carboxamide] | 87.8 nM | 13% | 36.1 nM | 3.96% | > 25 µM | 551 nM | 15.2 | 54.9 nM | 1.5 | 1020 nM | 0.43% | 8.6%
5 | Cc1cc(C(=O)Nc2nc([C@H]3CCCN3c3ccccc3)cs2)n(Cc2ccncc2)c1 [Compound A115, (R)-4-methyl-N-(4-(1-phenylpyrrolidin-2-yl)thiazol-2-yl)-1-(pyridin-4-ylmethyl)-1H-pyrrole-2-carboxamide] | 89.3 nM | 3.39% | 41.5 nM | 14.6% | 7.27 µM | 587 nM | 14.1 | 122 nM | 2.9 | 2000 nM | 3.2% | 9.02%
6 | O=C(Nc1nc([C@H]2CCCN2c2ccc(Br)cc2)cs1)c1cccn1Cc1ccnc(F)c1 [Compound A116] | 4.14 nM | 60.7% | 2 nM | 45.3% | > 25 µM | 39.5 nM | 19.7 | 4.93 nM | 2.5 | 160 nM | 18.9% | 37.7%
7 | CC(=O)N(C)CCOc1ccc(N2CCC[C@@H]2c2csc(NC(=O)c3cccn3Cc3ccnc(F)c3)n2)cc1 [Compound A117, (R)-1-((2-fluoropyridin-4-yl)methyl)-N-(4-(1-(4-(2-(N-methylacetamido)ethoxy)phenyl)pyrrolidin-2-yl)thiazol-2-yl)-1H-pyrrole-2-carboxamide] | 33.4 nM | 0.81% | 28.2 nM | 2.64% | > 25 µM | 301 nM | 10.7 | 51 nM | 1.8 | 938 nM | 0.09% | 8.86%
8 | CC(=O)NCCOc1ccc(N2CCC[C@@H]2c2csc(NC(=O)c3cccn3Cc3ccnc(F)c3)n2)cc1 [Compound A121, (R)-N-(4-(1-(4-(2-acetamidoethoxy)phenyl)pyrrolidin-2-yl)thiazol-2-yl)-1-((2-fluoropyridin-4-yl)methyl)-1H-pyrrole-2-carboxamide] | 17.5 nM | 7.09% | 10.9 nM | 8.26% | > 25 µM | 180 nM | 16.5 | 20.7 nM | 1.9 | 447 nM | 1.57% | 9.82%
9 | CC(=O)Nc1ccc(N2CCC[C@@H]2c2csc(NC(=O)c3cccn3Cc3cc(F)nc(F)c3)n2)cc1 [Compound A122, (R)-N-(4-(1-(4-acetamidophenyl)pyrrolidin-2-yl)thiazol-2-yl)-1-((2,6-difluoropyridin-4-yl)methyl)-1H-pyrrole-2-carboxamide] | 17.4 nM | 17.1% | 7.88 nM | 35.8% | 8.02 µM | 191 nM | 24.2 | 16 nM | 2 | 354 nM | 27.3% | 18.8%
10 | NC(=O)Nc1ccc(N2CCC[C@@H]2c2csc(NC(=O)c3cccn3Cc3ccnc(F)c3)n2)cc1 [Compound A123, (R)-1-((2-fluoropyridin-4-yl)methyl)-N-(4-(1-(4-ureidophenyl)pyrrolidin-2-yl)thiazol-2-yl)-1H-pyrrole-2-carboxamide] | 18.1 nM | 23.3% | 8.21 nM | 49.3% | > 25 µM | 143 nM | 17.4 | 24.3 nM | 3 | 289 nM | 31.6% | 44.7%
